From PubChem BioAssay (NCI)
Where “and” joins values, the source holds several entries; their conditions need not be identical. Identical values can stand only once.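 Compound exposure: 48 hours, 5 concentrations, 96-well plates. The concentration for 50% growth inhibition is given as GI50. TGI: total growth inhibition.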

Tests used:
Assay in all cases: NCI tumour cell line growth inhibition, 48 h
[1] = system: NCI-H23 lung
[2] = system: SNB-75 CNS
[3] = system: A498 renal
[4] = system: SK-OV-3 ovarian
[5] = system: MALME-3M melanoma
[6] = system: CCRF-CEM leukemia
[7] = system: OVCAR-8 ovarian
[8] = system: MOLT-4 leukemia
[9] = system: UACC-62 melanoma
[10] = system: HCC-2998 colon

Compound | TGI [1] | TGI [2] | TGI [3] | TGI [4] | TGI [5] | TGI [6] | TGI [7] | TGI [8] | TGI [9] | TGI [10] | GI50 [1] | GI50 [2] | GI50 [3] | GI50 [4] | GI50 [5] | GI50 [6] | GI50 [7] | GI50 [8] | GI50 [9] | GI50 [10]
CC(C)(c1ccc(OC#N)cc1)c1ccc(OC#N)cc1 | > 100 µM | > 94.7 µM | > 100 µM | > 100 µM | > 100 µM | > 73.7 µM | > 100 µM | > 100 µM | > 100 µM | > 100 µM | – | – | – | – | – | – | – | – | – | –
C=C1CC[C@@H]2[C@](C)(COC(C)=O)[C@H](OC(C)=O)CC[C@@]2(C)[C@@H]1C/C=C1/C(=O)OC[C@H]1OC(C)=O | 23 µM | 14.2 µM | 27.5 µM | 36.3 µM | 7.95 µM | 5.32 µM | 22 µM | 16.1 µM | 13.5 µM | 27.3 µM | 6.22 µM | 2.83 µM | 14.4 µM | 19.1 µM | 2.98 µM | 1.12 µM | 3.38 µM | 3.8 µM | 3.37 µM | 12.2 µM
N#CC1=C(N)Oc2c(sc3c(F)cccc23)C1c1ccc(F)cc1 (stereo unspecified) | 14.8 µM | 14.9 µM | 0.909 µM | 19.7 µM | 22.2 µM | 25.3 µM | 22.5 µM | 13.3 µM | 14.9 µM | 8.58 µM | 1.45 µM | 0.338 µM | 0.15 µM | 1.61 µM | 0.602 µM | 0.47 µM | 1.61 µM | 0.521 µM | 0.551 µM | 1.62 µM
O=C(/C=C/c1ccc(C(F)(F)F)cc1)c1ccc(Nc2nc(NCCO)nc(N3CCOCC3)n2)cc1 | 6.97 µM | 7.9 µM | 12 µM | > 100 µM | 10.2 µM | 6.61 µM | 12.4 µM | 9.05 µM | 8.87 µM | 5.7 µM | 2.55 µM | 1.84 µM | 1.4 µM | 3.82 µM | 2.91 µM | 2.41 µM | 3.25 µM | 2.45 µM | 2.76 µM | 2.34 µM
O=C1C[C@@H]2CCCC[C@@H]2C12SCCS2 | > 100 µM | > 100 µM | > 100 µM | > 100 µM | > 100 µM | > 100 µM | > 100 µM | > 100 µM | > 100 µM | > 100 µM | – | – | – | – | – | – | – | – | – | –
COC(=O)[C@@H](C)C[C@H](Cc1ccccc1)NC(=O)c1csc([C@@H](C[C@H](C(C)C)N(C)C(=O)C2(NC(=O)[C@H]3CCCCN3C)CC2)OC(C)=O)n1 | > 33.3 µM | > 33.3 µM | – | < 0.00333 µM | > 33.3 µM | > 33.3 µM | > 33.3 µM | > 33.3 µM | > 33.3 µM | > 33.3 µM | 0.0172 µM and 0.00333 µM | 0.00434 µM and 0.00333 µM | 0.00858 µM and < 0.00333 µM | 0.0183 µM and < 0.00333 µM | > 33.3 µM | 0.00531 µM and 0.00333 µM | – | 0.00965 µM and 0.00333 µM | 0.00352 µM and 0.00333 µM | 0.00849 µM and 0.00333 µM
COc1ccc(/C=C/C(=O)c2cc3c(N)c(C(=O)Nc4ccccc4)sc3nc2C)cc1 | – | – | 0.487 µM | > 50 µM | > 50 µM | > 28.7 µM | > 50 µM | > 50 µM | > 50 µM | 6.53 µM | 0.227 µM | 0.0933 µM | 0.114 µM | 0.248 µM | 1.7 µM | 0.184 µM | 0.277 µM | 0.318 µM | 0.119 µM | 0.785 µM
COc1ccc2nc(C)cc(Nc3ccccc3O)c2c1 | > 100 µM | > 100 µM | 45.2 µM | > 100 µM | 61.2 µM | > 100 µM | 69.7 µM | 78.6 µM | 39.5 µM | 34.3 µM | 38.5 µM | 69.9 µM | 8.07 µM | > 100 µM | 27.3 µM | 21.7 µM | 24.8 µM | 24.8 µM | 17.9 µM | 17.6 µM
COc1cc2cccc(NC(=O)c3cc(OC)c(OC)c(OC)c3Br)c2cc1OC | 34.4 µM | 74.8 µM | > 100 µM | 59.2 µM | 49.8 µM | 21.5 µM | 85.4 µM | 8.81 µM | 26.1 µM | 85.4 µM | – | – | – | – | – | – | – | – | – | –
CCOC1C=CCCO1 (stereo unspecified) | > 100 µM | > 100 µM | > 100 µM | > 100 µM | > 100 µM | > 100 µM | > 100 µM | > 100 µM | > 100 µM | 9.11 µM | – | – | – | – | – | – | – | – | – | –
Clc1ccc(SCCCCCCCCCCSc2ccc(Cl)cc2)cc1 | > 100 µM | > 100 µM | > 100 µM | > 100 µM | > 70.3 µM | > 100 µM | > 80.1 µM | > 100 µM | > 100 µM | > 64.6 µM | – | – | – | – | – | – | – | – | – | –
CNc1nc(N(C)C)nc(N(C)C)n1 | > 100 µM and 1830 µM | > 100 µM and 1980 µM | > 100 µM and 2970 µM | > 100 µM and 3640 µM | > 100 µM and 2110 µM | > 100 µM and 6600 µM | > 100 µM and 2950 µM | > 100 µM and 7060 µM | > 100 µM and 3640 µM | > 100 µM and 3590 µM | > 100 µM and 650 µM | > 100 µM and 473 µM | > 100 µM and 1300 µM | > 100 µM and 1390 µM | > 100 µM and 1160 µM | > 100 µM and 4060 µM | > 100 µM and 1780 µM | > 100 µM and 1810 µM | > 100 µM and 952 µM | > 100 µM and 1520 µM
CN(C)c1ccc(O)c2c1C[C@H]1C[C@H]3[C@H](N(C)C)C(=O)C(C(N)=O)=C(O)[C@@]3(O)C(=O)C1=C2O | 39.7 µM | 68.7 µM | 10.5 µM | > 100 µM | 33.3 µM | 65.9 µM | > 100 µM | 40.6 µM | 16.9 µM | 17.8 µM | 4.95 µM | 4.88 µM | 1.49 µM | 3.92 µM | 7.51 µM | 6.27 µM | 5.11 µM | 10.7 µM | 3.35 µM | 4.19 µM
COc1cc(/C=C/C(=O)c2c(C)n([O-])c3ccc(Cl)cc3[n+]2=O)cc(OC)c1OC | > 100 µM | 40.6 µM | > 100 µM | > 100 µM | 35.3 µM | > 100 µM | 33.4 µM | > 100 µM | > 100 µM | > 100 µM | 50.5 µM | 17.3 µM | 23.5 µM | 34.6 µM | 14.1 µM | > 100 µM | 11.8 µM | > 100 µM | > 100 µM | > 100 µM
N#CC(C#N)=C1SCC(=O)CS1 | > 100 µM | > 100 µM | > 100 µM | > 100 µM | > 100 µM | > 100 µM | > 100 µM | > 100 µM | > 100 µM | > 100 µM | – | – | – | – | – | – | – | – | – | –
